Experimental data published in US12161745B2, “Peptides and compositions for use in cosmetics” (LIPOTRUE, S.L., priority 2019, dated 2024).
Where a SMILES comes first, the peptide text is derived from it. The star is where a group is joined. Palmitoyl = CCCCCCCCCCCCCCCC(=O)*

Assays:
Format in all cases: cell-based
[1] = tested on: HEKa (Human Epidermal Keratinocytes, adult) cells; assay: MTT viability assay (cytotoxicity) in HEKa cells; details: 0.001-0.1 mg/mL, 24 h, vs basal state
Method: (§1) The cytotoxicity of peptide Pal-SEQ ID NO: 1-NH2 was analysed by means of viability assay in HEKa (Human Epidermal Keratinocytes, adult) and HDFa (Human Dermal Fibroblasts, adult) cells.
(§2) Cytotoxicity was assessed by means of the MTT assay. Briefly HEKa and HDFa cells were seeded in 96-well plates at a concentration of 1×10^5 cells/mL and incubated in Epilife Medium supplemented with 1% (v/v) EDGS and 1% (v/v) of Penicillin/Streptomycin (for HEKa cells) and Medium 106 supplemented with 2% (v/v) of Low Serum Growth Supplement (LSGS) (for HDFa cells) for 24 h at 37° C., 5% CO2 and saturated humidity. Cells were then treated with different concentrations of peptide Pal-SEQ ID NO: 1-NH2 (0.001 mg/mL, 0.005 mg/mL, 0.01 mg/mL, 0.05 mg/mL, and 0.1 mg/mL for HEKa cells; and 0.001 mg/mL, 0.005 mg/mL and 0.01 mg/mL for HDFa cells) in triplicates, for MTT evaluation. […] The plates were placed on a shaker for 5 minutes for complete solubilisation of the crystals and then the absorbance at 450 nm of each well was determined using the microplate reader Multiskan FC, which is directly proportional to the number of living cells in culture. Absorbance values were normalized using the data obtained for non-treated cells (basal state).

[2] = tested on: HDFa (Human Dermal Fibroblasts, adult) cells; assay: MTT viability assay (cytotoxicity) in HDFa cells; details: 0.001-0.01 mg/mL, 24 h, vs basal state
Method: as §1, §2

[3] = tested on: human organotypical skin explant cultures (hOSECs); assay: LDH cytotoxicity assay in human organotypical skin explant cultures
Method: (§3) In this case healthy and aged human organotypical skin explant cultures (hOSECs) were used as experimental systems.
(§4) The aged hOSEC was obtained by exposition of the healthy hOSEC to hydrocortisone (5 μg/mL) for the first five days of the study.
The total number of treatment groups was as follows: • 1. Control group (negative control): Untreated hOSEC. • 2. Aged hOSEC: hOSECs treated with hydrocortisone at 5 μg/mL (Abraham A, Roga G. (2014) Topical steroid-damaged skin. Indian J Dermatol. 59(5), 456-9.) • 3. Aged hOSEC+Product A (cream, this is, placebo): hOSECs treated with hydrocortisone at 5 μg/mL and incubated with product A (10 μL). • 4. […]
The LDH Cytotoxicity test is a colorimetric assay that quantitatively measures lactate dehydrogenase (LDH), a stable cytosolic enzyme that is released into the culture medium supernatant upon damage of the cytoplasmic membrane. The released LDH in culture medium supernatants is measured for 30 minutes coupled enzymatic reaction: LDH oxidizes lactate to pyruvate which then reacts with the tetrazolium salt WST-1 to form formazan. The increase in the amount of formazan measured in the culture supernatant directly correlates to the increase in the number of lysed cells (damage) in the skin explant. […]
The results of this assay were calculated considering the negative control, this is, untreated hOSEC as 100% of the LDH normal concentration.

[4] = tested on: human organotypical skin explant cultures (hOSECs); assay: Resazurin assay in human organotypical skin explant cultures; details: 5 μg/mL
Method: as §3, §4
The total number of treatment groups was as follows: • 1. Control group (negative control): Untreated hOSEC. • 2. Aged hOSEC: hOSECs treated with hydrocortisone at 5 μg/mL (Abraham A, Roga G. (2014) Topical steroid-damaged skin. Indian J Dermatol. 59(5), 456-9.) • 3. Aged hOSEC+Product A (cream, this is, placebo): hOSECs treated with hydrocortisone at 5 μg/mL and incubated with product A (10 μL). • 4. Aged hOSEC+Product B (cream with Pal-SEQ ID NO: 1-NH2 at a concentration of 0.005 mg/mL): hOSECs treated with hydrocortisone at 5 μg/mL and incubated with Product B (10 μL).
The total duration of the assay was of 10 days (days 1 to 10). Hydrocortisone was applied in the appropriate or corresponding groups each day on days 1 to 5. […]
For the resazurin assay, the skin explants were treated with 6 μM of resazurin in NaCl solution for 1 hour. […] The resorufin formed was quantified in a fluorometer plate reader.
The fluorescent signal was monitored using 530-560 nm excitation wavelength and 590 nm emission wavelength.
The results of the resazurin assay were calculated considering the negative control, untreated healthy hOSECs, as 100% viability. […]

Structure (SMILES) | viability of HEKa cells [1] | viability of HDFa cells [2] | toxicity deduced from LDH cytotoxicity assay and resazurin assay ([3]; cream with 0.005 mg/mL peptide on aged hOSEC) | reduction of Resorufin percentage with respect to the Control group [4] | adverse effect in hOSECs (LDH, plasma membrane damage) ([3]; hydrocortisone 5 μg/mL, days 1 to 5)
CCCCCCCCCCCCCCCC(=O)N[C@@H](Cc1c[nH]cn1)C(=O)N[C@@H](Cc1ccc(O)cc1)C(=O)N[C@@H](CCCNC(=N)N)C(=O)N[C@@H](C)C(N)=O [Pal-SEQ ID NO: 1-NH2, Pal-His-Tyr-Arg-Ala-NH2] (Palmitoyl-HYRA-NH2) | did not alter viability | did not alter viability | not toxic |  | 
C[C@]12CCC(=O)C=C1CC[C@@H]1[C@@H]2[C@@H](O)C[C@@]2(C)[C@H]1CC[C@]2(O)C(=O)CO [hydrocortisone, reference compound] |  |  |  | 10% | did not produce any adverse effect
